*1 amine or outer side, *2 acyl side, *3 side chain or, on linkers, in order; H or OH if unused. Where a SMILES comes first, the peptide text is derived from it. Side-chain parts run from the residue outwards. [ ]: non-standard residue; d: D form. The star is where a group is joined. C20 diacid = O=C(O)CCCCCCCCCCCCCCCCCCC(=O)*; C18 diacid = O=C(O)CCCCCCCCCCCCCCCCC(=O)*; γGlu = O=C(O)[C@H](CCC(=O)[*:2])N[*:1]; 4Pal = N[C@@H](Cc1ccncc1)C(=O)O; αMeL = CC(C)C[C@](C)(N)C(=O)O; Orn = NCCC[C@H](N)C(=O)O; AEEA = NCCOCCOCC(=O)O; Aib = CC(C)(N)C(=O)O
Target: T1, human GLP-1R (Homo sapiens, UniProt P43220)
T1 construct: expressed in transfected cells; crude membranes
T1 sequence (P43220 24-463): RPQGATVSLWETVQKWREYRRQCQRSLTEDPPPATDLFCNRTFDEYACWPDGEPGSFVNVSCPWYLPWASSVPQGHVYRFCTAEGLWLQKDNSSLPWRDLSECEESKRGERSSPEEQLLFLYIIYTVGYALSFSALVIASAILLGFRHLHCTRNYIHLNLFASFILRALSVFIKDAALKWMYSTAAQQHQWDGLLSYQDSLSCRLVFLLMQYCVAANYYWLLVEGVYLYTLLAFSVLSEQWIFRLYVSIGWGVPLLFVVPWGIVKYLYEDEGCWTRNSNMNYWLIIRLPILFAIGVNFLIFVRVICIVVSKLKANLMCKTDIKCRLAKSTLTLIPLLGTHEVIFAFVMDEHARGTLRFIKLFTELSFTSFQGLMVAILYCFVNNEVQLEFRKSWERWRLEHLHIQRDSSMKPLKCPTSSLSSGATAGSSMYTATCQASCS
Assay: [125I]-GLP-1 binding, SPA with WGA beads, 0.1% bacitracin
Settings: geometric mean, read-out: hGLP1R Ki
Method: Stably transfected cell lines are prepared by subcloning receptor cDNA into a pcDNA3 expression plasmid and transfected into human embryonic kidney (HEK) 293 (hGcgR and hGLP-1R) or Chinese Hamster Ovary (CHO) (hGIPR) cells followed by selection with Geneticin (hGLP-1R and hGIPR) or hygromycin B (hGcgR).
Two methods are used for the preparation of crude cell membranes.
Method 1: Frozen cell pellets are lysed on ice in hypotonic buffer containing 50 mM Tris HCl, pH 7.5, and Roche Complete™ Protease Inhibitors with EDTA. The cell suspension is disrupted using a glass Potter-Elvehjem homogenizer fitted with a Teflon® pestle for 25 strokes. The homogenate is centrifuged at 4° C. at 1100× g for 10 minutes. The supernatant is collected and stored on ice while the pellets are resuspended in homogenization buffer and rehomogenized as described above. The homogenate is centrifuged at 1100× g for 10 minutes. The second supernatant is combined with the first supernatant and centrifuged at 35000× g for 1 hour at 4° C. The resulting membrane pellet is resuspended in homogenization buffer containing protease inhibitors at approximately 1 to 3 mg/mL, quick frozen in liquid nitrogen and stored as aliquots in a −80° C. freezer until use.
Method 2: Frozen cell pellets are lysed on ice in hypotonic buffer containing 50 mM Tris HCl, pH 7.5, 1 mM MgCl2, Roche Complete™ EDTA-free Protease Inhibitors and 25 units/mL DNAse I (Invitrogen). The cell suspension is disrupted using a glass Potter-Elvehjem homogenizer fitted with a Teflon® pestle for 20 to 25 strokes. The homogenate is centrifuged at 4° C. at 1800× g for 15 minutes. The supernatant is collected and stored on ice while the pellets are resuspended in homogenization buffer (without DNAse I) and rehomogenized as described above. The homogenate is centrifuged at 1800× g for 15 minutes. The second supernatant is combined with the first supernatant and centrifuged an additional time at 1800× g for 15 minutes. The overall supernatant is then centrifuged at 25000× g for 30 minutes at 4° C. The resulting membrane pellet is resuspended in homogenization buffer (without DNAse I) containing protease inhibitors at approximately 1 to 3 mg/mL and stored as aliquots in a −80° C. freezer until use.
The binding buffer contains 25 mM HEPES, pH 7.4, 2.5 mM CaCl2), 1 mM MgCl2, 0.1% (w/v) bacitracin, 0.003% (w/v) TWEEN®-20, and Roche Complete™ Protease Inhibitors without EDTA.
Data are analyzed using four-parameter (curve maximum, curve minimum, IC50, Hill slope) nonlinear regression routines (Genedata Screener, version 12.0.4, Genedata AG, Basal, Switzerland). […] Values for Ki are reported as the geometric mean, with error expressed as the standard error of the mean (SEM) and n is equal to the number of independent replicates (determined in assays performed on different days). […] SEM is only calculated when […] or greater. Means are expressed as geometric means with the standard error of the mean (SEM) and the number of replicates (n) indicated in parentheses.

Compound	Ki
CC[C@H](C)[C@H](NC(=O)[C@H](CO)NC(=O)[C@H](Cc1ccc(O)cc1)NC(=O)[C@H](CC(=O)O)NC(=O)[C@H](CO)NC(=O)[C@@H](NC(=O)[C@H](Cc1ccccc1)NC(=O)[C@@H](NC(=O)CNC(=O)[C@H](CCC(=O)O)NC(=O)[C@@H](C)NC(=O)[C@@H](N)Cc1ccc(O)cc1)[C@@H](C)O)[C@@H](C)CC)C(=O)N[C@@H](CC(C)C)C(=O)N[C@@H](CC(C)C)C(=O)N[C@@H](CC(=O)O)C(=O)N[C@@H](CCCCN)C(=O)N[C@@H](CCCCNC(=O)COCCOCCNC(=O)COCCOCCNC(=O)CC[C@H](NC(=O)CCCCCCCCCCCCCCCCCCC(=O)O)C(=O)O)C(=O)N[C@@H](Cc1c[nH]cn1)C(=O)N[C@@H](CCC(N)=O)C(=O)N[C@@H](CCC(N)=O)C(=O)N[C@@H](CC(=O)O)C(=O)N[C@@H](Cc1ccccc1)C(=O)N[C@H](C(=O)N[C@@H](CCC(=O)O)C(=O)N[C@@H](Cc1c[nH]c2ccccc12)C(=O)N[C@@H](CC(C)C)C(=O)N[C@@H](CC(C)C)C(=O)N[C@@H](C)C(=O)N[C@@H](CCC(N)=O)C(=O)NCC(=O)N1CCC[C@H]1C(=O)N[C@@H](CO)C(=O)N[C@@H](CO)C(=O)NCC(=O)N[C@@H](C)C(=O)N1CCC[C@H]1C(=O)N1CCC[C@H]1C(=O)N1CCC[C@H]1C(=O)N[C@@H](CO)C(N)=O)C(C)C [Example 14] (H-Y[dA]EGTFISDYSILLDKK([AEEA-AEEA-γGlu-C20 diacid])HQQDFVEWLLAQGPSSGAPPPS-NH2)	> 213 nM
CC[C@H](C)[C@H](NC(=O)[C@H](CCCCN)NC(=O)[C@H](CC(=O)O)NC(=O)[C@H](CC(C)C)NC(=O)[C@](C)(CC(C)C)NC(=O)[C@@H](NC(=O)[C@H](CO)NC(=O)[C@H](Cc1ccc(O)cc1)NC(=O)[C@H](CC(=O)O)NC(=O)[C@H](CO)NC(=O)[C@@H](NC(=O)[C@H](Cc1ccccc1)NC(=O)[C@@H](NC(=O)CNC(=O)[C@H](CCC(=O)O)NC(=O)C(C)(C)NC(=O)[C@@H](N)Cc1ccc(O)cc1)[C@@H](C)O)[C@@H](C)CC)[C@@H](C)CC)C(=O)N[C@@H](Cc1c[nH]cn1)C(=O)N[C@@H](CCC(N)=O)C(=O)NC(C)(C)C(=O)N[C@@H](CC(=O)O)C(=O)N[C@@H](Cc1ccccc1)C(=O)N[C@H](C(=O)N[C@@H](CCC(=O)O)C(=O)N[C@@H](Cc1ccncc1)C(=O)N[C@@H](CCCCNC(=O)COCCOCCNC(=O)COCCOCCNC(=O)CC[C@H](NC(=O)CCCCCCCCCCCCCCCCCCC(=O)O)C(=O)O)C(=O)N[C@@H](CC(C)C)C(=O)N[C@@H](CCC(=O)O)C(=O)NCC(=O)NCC(=O)N1CCC[C@H]1C(=O)N[C@@H](CO)C(=O)N[C@@H](CO)C(=O)NCC(=O)N[C@@H](C)C(=O)N1CCC[C@H]1C(=O)N1CCC[C@H]1C(=O)N1CCC[C@H]1C(=O)N[C@@H](CO)C(N)=O)C(C)C [Example 109] (H-Y[Aib]EGTFISDYSI[αMeL]LDKIHQ[Aib]DFVE[4Pal]K([AEEA-AEEA-γGlu-C20 diacid])LEGGPSSGAPPPS-NH2)	> 908 nM
CC[C@H](C)[C@H](NC(=O)[C@H](CO)NC(=O)[C@H](Cc1ccc(O)cc1)NC(=O)[C@H](CC(=O)O)NC(=O)[C@H](CO)NC(=O)[C@@H](NC(=O)[C@H](Cc1ccccc1)NC(=O)[C@@H](NC(=O)CNC(=O)[C@H](CCC(=O)O)NC(=O)C(C)(C)NC(=O)[C@@H](N)Cc1ccc(O)cc1)[C@@H](C)O)[C@@H](C)CC)C(=O)N[C@@H](CC(C)C)C(=O)N[C@@H](CC(C)C)C(=O)N[C@@H](CC(=O)O)C(=O)N[C@@H](CCCCN)C(=O)N[C@@H](CCCCNC(=O)COCCOCCNC(=O)COCCOCCNC(=O)CC[C@H](NC(=O)CCCCCCCCCCCCCCCCC(=O)O)C(=O)O)C(=O)N[C@@H](Cc1c[nH]cn1)C(=O)N[C@@H](CCC(N)=O)C(=O)NC(C)(C)C(=O)N[C@@H](CC(=O)O)C(=O)N[C@@H](Cc1ccccc1)C(=O)N[C@H](C(=O)N[C@@H](CC(N)=O)C(=O)N[C@@H](Cc1ccc(O)cc1)C(=O)N[C@@H](CC(C)C)C(=O)N[C@@H](CC(C)C)C(=O)N[C@@H](C)C(=O)N[C@@H](C)C(=O)NCC(=O)N1CCC[C@H]1C(=O)N[C@@H](CO)C(=O)N[C@@H](CO)C(=O)NCC(=O)N[C@@H](C)C(=O)N1CCC[C@H]1C(=O)N1CCC[C@H]1C(=O)N1CCC[C@H]1C(=O)N[C@@H](CO)C(N)=O)C(C)C [Example 31] (H-Y[Aib]EGTFISDYSILLDKK([AEEA-AEEA-γGlu-C18 diacid])HQ[Aib]DFVNYLLAAGPSSGAPPPS-NH2)	266 nM
CC[C@H](C)[C@H](NC(=O)[C@H](CC(C)C)NC(=O)[C@@H](NC(=O)CNC(=O)[C@H](CCC(=O)O)NC(=O)C(C)(C)NC(=O)[C@@H](N)Cc1ccc(O)cc1)[C@@H](C)O)C(=O)N[C@@H](CO)C(=O)N[C@@H](CC(=O)O)C(=O)N[C@@H](Cc1ccc(O)cc1)C(=O)N[C@@H](CO)C(=O)N[C@H](C(=O)N[C@@](C)(CC(C)C)C(=O)N[C@@H](CC(C)C)C(=O)N[C@@H](CC(=O)O)C(=O)N[C@@H](CCCCN)C(=O)N[C@@H](CCCCNC(=O)COCCOCCNC(=O)COCCOCCNC(=O)CC[C@H](NC(=O)CCCCCCCCCCCCCCCCCCC(=O)O)C(=O)O)C(=O)N[C@@H](Cc1c[nH]cn1)C(=O)N[C@@H](CCC(N)=O)C(=O)NC(C)(C)C(=O)N[C@@H](CCC(=O)O)C(=O)N[C@@H](Cc1ccccc1)C(=O)N[C@H](C(=O)N[C@@H](CCC(=O)O)C(=O)N[C@@H](Cc1ccc(O)cc1)C(=O)N[C@@H](CC(C)C)C(=O)N[C@@H](CC(C)C)C(=O)N[C@@H](CCC(=O)O)C(=O)NCC(=O)NCC(=O)N1CCC[C@H]1C(=O)N[C@@H](CO)C(=O)N[C@@H](CO)C(=O)NCC(=O)N[C@@H](C)C(=O)N1CCC[C@H]1C(=O)N1CCC[C@H]1C(=O)N1CCC[C@H]1C(=O)N[C@@H](CO)C(N)=O)C(C)C)[C@@H](C)CC [Example 73] (H-Y[Aib]EGTLISDYSI[αMeL]LDKK([AEEA-AEEA-γGlu-C20 diacid])HQ[Aib]EFVEYLLEGGPSSGAPPPS-NH2)	117 nM
CC[C@H](C)[C@H](NC(=O)[C@H](Cc1ccccc1)NC(=O)[C@@H](NC(=O)CNC(=O)[C@H](CCC(=O)O)NC(=O)C(C)(C)NC(=O)[C@@H](N)Cc1ccc(O)cc1)[C@@H](C)O)C(=O)N[C@@H](CO)C(=O)N[C@@H](CC(=O)O)C(=O)N[C@@H](Cc1ccc(O)cc1)C(=O)N[C@@H](CO)C(=O)N[C@H](C(=O)N[C@@](C)(CC(C)C)C(=O)N[C@@H](CC(C)C)C(=O)N[C@@H](CC(=O)O)C(=O)N[C@@H](CCCN)C(=O)N[C@@H](CCCCNC(=O)COCCOCCNC(=O)COCCOCCNC(=O)CC[C@H](NC(=O)CCCCCCCCCCCCCCCCCCC(=O)O)C(=O)O)C(=O)N[C@@H](Cc1c[nH]cn1)C(=O)N[C@@H](CCC(N)=O)C(=O)NC(C)(C)C(=O)N[C@@H](CC(=O)O)C(=O)N[C@@H](Cc1ccccc1)C(=O)N[C@H](C(=O)N[C@@H](CCC(=O)O)C(=O)N[C@@H](Cc1ccncc1)C(=O)N[C@@H](CC(C)C)C(=O)N[C@@H](CC(C)C)C(=O)N[C@@H](CCC(=O)O)C(=O)N[C@@H](CCC(N)=O)C(=O)NCC(=O)N1CCC[C@H]1C(=O)N[C@@H](CO)C(=O)N[C@@H](CO)C(=O)NCC(=O)N[C@@H](C)C(=O)N1CCC[C@H]1C(=O)N1CCC[C@H]1C(=O)N1CCC[C@H]1C(=O)N[C@@H](CO)C(N)=O)C(C)C)[C@@H](C)CC [Example 81] (H-Y[Aib]EGTFISDYSI[αMeL]LD[Orn]K([AEEA-AEEA-γGlu-C20 diacid])HQ[Aib]DFVE[4Pal]LLEQGPSSGAPPPS-NH2)	714 nM
